This is an account of results in patent US9908890B2, “Selective inhibitors of constitutive androstane receptor” (ST. JUDE CHILDREN'S RESEARCH HOSPITAL, priority 2014, dated 2018).

Where two headings read alike, the source gives them in different places.

The target of this test is T1, GST-hCAR-LBD (Homo sapiens, UniProt Q14994).
T1 construct: purchased Life Technologies (Carlsbad, Calif.) or Invitrogen (Carlsbad, Calif.)
T1 sequence (Q14994 109-352 limits assumed): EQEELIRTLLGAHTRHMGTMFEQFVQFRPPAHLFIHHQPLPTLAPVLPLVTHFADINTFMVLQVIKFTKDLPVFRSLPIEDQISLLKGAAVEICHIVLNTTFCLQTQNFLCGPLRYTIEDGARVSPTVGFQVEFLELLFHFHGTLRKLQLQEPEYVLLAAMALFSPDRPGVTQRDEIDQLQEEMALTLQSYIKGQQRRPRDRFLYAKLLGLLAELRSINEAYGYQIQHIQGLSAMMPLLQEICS
As to the kind of experiment: CoAct binding inverse agonist assay (LanthaScreen TR-FRET, fluorescent PGC-1α coactivator recruitment/repression). It is filed as biochemical. As to conditions: for inhibition at 70 µM: read-out: % Inhibition (70 μM); for fold increase of IC50 (decrease of activity) relative to lead chemical 1 (CINPA1): relative to chemical 1. How it is done: The effect of putative CAR ligands on the recruitment or repression of PGC-1α binding to hCAR was evaluated by using a LanthaScreen TR-FRET assay according to the manufacturer's instructions. […] The final DMSO concentration was 0.7% in all assay wells. […] The % Inhibition values were then plotted for individual chemicals. When applicable, the graphic software GraphPad Prism 5.04 (GraphPad Software, La Jolla, Calif., USA) was used to fit the data into a one-site competitive-binding equation to derive IC50 values. […] The assay plates were then briefly spun down and incubated for 1 hour at room temperature (25° C.). […] The final DMSO concentration was 0.7% in all assay wells. […] The % Inhibition values were then plotted for individual chemicals. When applicable, the graphic software GraphPad Prism 5.04 (GraphPad Software, La Jolla, Calif., USA) was used to fit the data into a one-site competitive-binding equation to derive IC50 values.
(In general: In TR-FRET formats the signal depends on donor and acceptor labels being close together.)

Setting [1] is: read-out: IC50 (CAR inverse agonistic activity).
[2] abbreviates: 70 μM compound, 42 μM clotrimazole = 100%, DMSO = 0%.

The IC50 is the point on the concentration scale where inhibition reaches its midpoint. For `CC(C)OC(=O)Nc1ccc2c(c1)N(C(=O)COC1CCCC1)c1ccccc1CC2` [Compound 35, isopropyl (5-(2-(cyclopentyloxy)acetyl)-10,11-dihydro-5H-dibenzo[b,f]azepin-3-yl)carbamate], the IC50 under setting [1] was 20 nM.
Still for that read-out and setting: the value for `O=C(Nc1ccc2c(c1)N(C(=O)Cn1cccc1)c1ccccc1CC2)OC1CC1` [Compound 41, cyclopropyl (5-(2-(1H-pyrrol-1-yl)acetyl)-10,11-dihydro-5H-dibenzo[b,f]azepin-3-yl)carbamate] was 22 nM.
Consider `CC(C)OC(=O)Nc1ccc2c(c1)N(C(=O)Cc1ccco1)c1ccccc1CC2` [Compound 63], for which, under “Table 4, read-out: IC50”, the IC50 turned out to be 37 nM.
With `CCNCC(=O)N1c2ccccc2CCc2ccc(NC(=O)OCC)cc21` [Compound 71], the “% Inhibition (70 μM)” value under setting [2] is 77.6%. Where the note is “Table 4, read-out: IC50”, the IC50 is 28000 nM.
On to `O=C(Cn1cccc1)N1c2ccccc2CCc2ccc(NC(=O)n3cccc3)cc21` [Compound 46], for which the IC50 (Table 4, read-out: IC50) is 81 nM.
Consider `CC(C)OC(=O)Nc1ccc2c(c1)N(C(=O)CCN(C)C)c1ccccc1CC2` [compound 89], for which the IC50 under setting [1] amounted to 1790 nM. The “fold increase of potency compared to chemical 86” value (relative to chemical 86) is recorded as “about 3 fold”.
One may read the inhibition as the change of the read-out against control, counted positive when it falls. In the case of `CCNCC(=O)N1c2ccccc2CCc2ccc(N)cc21` [Compound 72], the inhibition at 70 µM under setting [2] was determined as 27%.
For the molecule `O=C(Nc1ccc2c(c1)N(C(=O)Cn1cccc1)c1ccccc1CC2)N1CCOCC1` [Compound 48], under “Table 4, read-out: IC50”, the IC50 is 370 nM.
With `CCOC(=O)Nc1ccc2c(c1)N(C(=O)CN1C(=O)C=CC1=O)c1ccccc1CC2` [Compound 15, ethyl (5-(2-(2,5-dioxo-2,5-dihydro-1H-pyrrol-1-yl)acetyl)-10,11-dihydro-5H-dibenzo[b,f]azepin-3-yl)carbamate], under setting [2], the inhibition at 70 µM worked out at 76%. Besides, the IC50 under setting [1] came out at 39800 nM. In addition, the “fold IC50 relative to chemical 13” value (relative to chemical 13) worked out at 25 fold.
Turning to `CCOC(=O)Nc1ccc2c(c1)N(C(=O)CCN(CC)CC)c1ccccc1CC2` [Compound 22, ethyl (5-(3-(diethylamino)propanoyl)-10,11-dihydro-5H-dibenzo[b,f]azepin-3-yl)carbamate], the “fold increase of IC50 (decrease of activity) relative to lead chemical 1 (CINPA1)” value is recorded as 3.5 fold. Further, the inhibition at 70 µM under setting [2] was 119%. Also, the IC50 under setting [1] was determined as 2430 nM.
Turning to `CC(C)OC(=O)Nc1ccc2c(c1)N(C(=O)OCC(C)(C)C)c1ccccc1CC2` [Compound 57], for the setting “Table 4, read-out: IC50”, the IC50 was found to be 25 nM.
As for `CCOC(=O)Nc1ccc2c(c1)N(C(=O)CN1CCN(C)CC1)c1ccccc1CC2` [compound 81], the “fold increase of IC50 (decrease of activity) relative to lead chemical 1 (CINPA1)” value was found to be 56 fold. Besides, under setting [1], the IC50 turned out to be 38800 nM.
With `CCN(CC)C(=O)N1c2ccccc2CCc2ccc(NC(=O)OC(C)C)cc21` [Compound 54], the IC50 (Table 4, read-out: IC50) turned out to be 19 nM.
Consider `O=C(Nc1ccc2c(c1)N(C(=O)Cn1cccc1)c1ccccc1CC2)OC1CCC1` [Compound 42, cyclobutyl (5-(2-(1H-pyrrol-1-yl)acetyl)-10,11-dihydro-5H-dibenzo[b,f]azepin-3-yl)carbamate], for which the IC50 under setting [1] came out at 20 nM.
Turning to `CCOC(=O)Nc1ccc2c(c1)N(C(=O)Cn1ccnc1)c1ccccc1CC2` [Compound 17, ethyl (5-(2-(1H-imidazol-1-yl)acetyl)-10,11-dihydro-5H-dibenzo[b,f]azepin-3-yl)carbamate], the inhibition at 70 µM under setting [2] was determined as 101%. Besides, the IC50 under setting [1] is 6890 nM. Where the note is “relative to chemical 16”, the “fold IC50 relative to chemical 16” value stood at 186 fold.
Consider `CC(C)OC(=O)Nc1ccc2c(c1)N(C(=O)COC1CC1)c1ccccc1CC2` [Compound 33, isopropyl (5-(2-cyclopropoxyacetyl)-10,11-dihydro-5H-dibenzo[b,f]azepin-3-yl)carbamate], for which, under setting [1], the IC50 came to 82 nM.
On the same count and under the same terms, as for `CC(C)OC(=O)Nc1ccc2c(c1)N(C(=O)CN1CCCCC1)c1ccccc1CC2` [Compound 27, isopropyl (5-(2-(piperidin-1-yl)acetyl)-10,11-dihydro-5H-dibenzo[b,f]azepin-3-yl)carbamate], the figure is 250 nM.
For `CCN(CC)CC(=O)N1c2ccccc2CCc2ccc(NC(=O)NC(C)C)cc21` [Compound 6, 1-(5-(diethylglycyl)-10,11-dihydro-5H-dibenzo[b,f]azepin-3-yl)-3-isopropylurea], under setting [2], the inhibition at 70 µM is 107%. The IC50 under setting [1] was determined as 4930 nM.
For `CCOC(=O)Nc1ccc2c(c1)N(C(=O)CNC(C)(C)C)c1ccccc1CC2` [compound 83], the “fold increase of IC50 (decrease of activity) relative to lead chemical 1 (CINPA1)” value turned out to be 5 fold. Also, the IC50 under setting [1] is 3630 nM.
As for `O=C(Nc1ccc2c(c1)N(C(=O)OC1CCCC1)c1ccccc1CC2)OC1CCCCC1` [Compound 60], the IC50 (Table 4, read-out: IC50) came out at 17 nM.
As to `CCOCC(=O)N1c2ccccc2CCc2ccc(NC(=O)OC(C)C)cc21` [Compound 29, isopropyl (5-(2-ethoxyacetyl)-10,11-dihydro-5H-dibenzo[b,f]azepin-3-yl)carbamate], the IC50 under setting [1] turned out to be 11400 nM.
Regarding `CC(C)OC(=O)Nc1ccc2c(c1)N(C(=O)c1ccco1)c1ccccc1CC2` [Compound 65], the IC50 (Table 4, read-out: IC50) worked out at 75 nM.
As for `CCOC(=O)Nc1ccc2c(c1)N(C(=O)CN1[C@H]3CC[C@@H]1CC3)c1ccccc1CC2` [Compound 20, ethyl (5-(2-((1s,4s)-7-azabicyclo[2.2.1]heptan-7-yl)acetyl)-10,11-dihydro-5H-dibenzo[b,f]azepin-3-yl)carbamate], under setting [2], the inhibition at 70 µM turned out to be 118%.
In the case of `O=C(Nc1ccc2c(c1)N(C(=O)c1ccco1)c1ccccc1CC2)OC1CCCCC1` [Compound 69], the IC50 (Table 4, read-out: IC50) is 50 nM.
Still for that read-out and setting: as for `CC(C)OC(=O)Nc1ccc2c(c1)N(C(=O)OC1CCCC1)c1ccccc1CC2` [Compound 56], the figure is 16 nM.
Same read-out and setting: as for `CC(C)OC(=O)Nc1ccc2c(c1)N(C(=O)n1cccc1)c1ccccc1CC2` [Compound 55], the figure is 18 nM.
For the molecule `CCNC(=O)Nc1ccc2c(c1)N(C(=O)CN(CC)CC)c1ccccc1CC2` [Compound 5, 1-(5-(diethylglycyl)-10,11-dihydro-5H-dibenzo[b,f]azepin-3-yl)-3-ethylurea], the inhibition at 70 µM under setting [2] was 94.9%. Further, under setting [1], the IC50 amounted to 14400 nM.
For `CC(C)OC(=O)Nc1ccc2c(c1)N(C(=O)COC1COC1)c1ccccc1CC2` [Compound 49], the IC50 (Table 4, read-out: IC50) came out at 660 nM.
For the molecule `CC(C)OC(=O)Nc1ccc2c(c1)N(C(=O)COC1CCCCC1)c1ccccc1CC2` [Compound 36, isopropyl (5-(2-(cyclohexyloxy)acetyl)-10,11-dihydro-5H-dibenzo[b,f]azepin-3-yl)carbamate], the IC50 under setting [1] came to 24 nM.
Consider `CCOC(=O)Nc1ccc2c(c1)N(C(=O)CN1CCCCC1)c1ccccc1CC2` [Compound 18, ethyl (5-(2-(piperidin-1-yl)acetyl)-10,11-dihydro-5H-dibenzo[b,f]azepin-3-yl)carbamate], for which the inhibition at 70 µM under setting [2] was 119%. Under setting [1], the IC50 is 620 nM.
For `CC(C)OCC(=O)N1c2ccccc2CCc2ccc(NC(=O)OC(C)(C)C)cc21` [Compound 39, tert-butyl (5-(2-isopropoxyacetyl)-10,11-dihydro-5H-dibenzo[b,f]azepin-3-yl)carbamate], the IC50 under setting [1] is 120 nM.
As to `CCOC(=O)Nc1ccc2c(c1)N(C(=O)CN(CC)CC)c1ccccc1CC2` [Compound 1, ethyl (5-(diethylglycyl)-10,11-dihydro-5H-dibenzo[b,f]azepin-3-yl)carbamate], the inhibition at 70 µM under setting [2] was determined as 116%. For the same molecule, the IC50 was 690 nM (Table 4, read-out: IC50) and 690 nM under setting [1].
With `CCNCC(=O)N1c2ccccc2CCc2ccc(NC(=O)OCC)cc21` [Compound 24, ethyl (5-(ethylglycyl)-10,11-dihydro-5H-dibenzo[b,f]azepin-3-yl)carbamate], the “fold increase of IC50 (decrease of activity) relative to lead chemical 1 (CINPA1)” value is reported as “over 35 fold”. Besides, the inhibition at 70 µM under setting [2] was 88.4%. For the same molecule, the IC50 (Table 4, read-out: IC50) is 24500 nM.
For `CC(C)(C)COC(=O)N1c2ccccc2CCc2ccc(NC(=O)OC3CCCCC3)cc21` [Compound 61], under “Table 4, read-out: IC50”, the IC50 came to 41 nM.
Consider `CCCN(CCC)CC(=O)N1c2ccccc2CCc2ccc(NC(=O)OC(C)C)cc21` [Compound 28, isopropyl (5-(dipropylglycyl)-10,11-dihydro-5H-dibenzo[b,f]azepin-3-yl)carbamate], for which the IC50 under setting [1] came to 120 nM.
The same measure, in the same setting: as for `CC(C)OC(=O)Nc1ccc2c(c1)N(C(=O)COCC(C)(C)C)c1ccccc1CC2` [Compound 32, isopropyl (5-(2-(neopentyloxy)acetyl)-10,11-dihydro-5H-dibenzo[b,f]azepin-3-yl)carbamate], the figure is 21 nM.
With `O=C(Nc1ccc2c(c1)N(C(=O)Cn1cccc1)c1ccccc1CC2)N1CCCC1` [Compound 45], the IC50 (Table 4, read-out: IC50) is 280 nM.
For `CC(C)OC(=O)Nc1ccc2c(c1)N(C(=O)CCN1CCN(CCO)CC1)c1ccccc1CC2` [compound 88], the IC50 (Table 6, CINPA1 and commercially available analogs, read-out: IC50) was over 70000 nM; the IC50 under setting [1] is over 70000 nM.
As for `CC(C)OC(=O)Nc1ccc2c(c1)N(C(=O)Cc1cccs1)c1ccccc1CC2` [Compound 62], the IC50 (Table 4, read-out: IC50) was found to be 21 nM.
For `COC(=O)Nc1ccc2c(c1)N(C(=O)CCN1CCOCC1)c1ccccc1CC2` [compound 87], the IC50 under setting [1] stood at 290 nM.
